Test results as given in ChEMBL document CHEMBL3046572, “Synthesis and evaluation of antibacterial and antitubercular activities of some novel imidazo[2,1-b][1,3,4]thiadiazole derivatives” (2013).
Values after ≈ are worked out from the molar mass of the structure shown.

Assays:
Format in all cases: functional
[1] = tested on: Mycobacterium tuberculosis; test: Antitubercular activity against Mycobacterium tuberculosis H37Rv assessed as growth inhibition after 5 days by microplate alamar blue assay; conditions: 120 h
Bacillus subtilis = test: Antibacterial activity against Bacillus subtilis assessed as growth inhibition after 18 hr by broth microdilution method
Staphylococcus aureus = test: Antibacterial activity against Staphylococcus aureus assessed as growth inhibition after 18 hr by broth microdilution method
Escherichia coli = test: Antibacterial activity against Escherichia coli assessed as growth inhibition after 18 hr by broth microdilution method
Vibrio cholerae = test: Antibacterial activity against Vibrio cholerae assessed as growth inhibition after 18 hr by broth microdilution method

| SMILES | MIC [1] [µg/mL] | MIC (Bacillus subtilis) [µg/mL] | MIC (Staphylococcus aureus) [µg/mL] | MIC (Escherichia coli) [µg/mL] | MIC (Vibrio cholerae) [µg/mL] |
| --- | --- | --- | --- | --- | --- |
| NC(=O)c1cnccn1 [PYRAZINAMIDE] | 3.12 (≈ 25.4 µM) |  |  |  |  |
| CCN(CC)c1ccc2cc(-c3nc4sc(S(=O)(=O)/N=C/N(C)C)nn4c3C3SCC(=O)N3c3ccccc3)c(=O)oc2c1 (stereo unspecified) | 0.8 (≈ 1.23 µM) | 16 (≈ 24.5 µM) | 16 (≈ 24.5 µM) | 1 (≈ 1.53 µM) | 1 (≈ 1.53 µM) |
| CCN(CC)c1ccc2cc(-c3nc4sc(S(N)(=O)=O)nn4c3SC#N)c(=O)oc2c1 | 12.5 (≈ 26.2 µM) | 62.5 (≈ 131 µM) | 62.5 (≈ 131 µM) | 31.2 (≈ 65.6 µM) | 31.2 (≈ 65.6 µM) |
| CCN(CC)c1ccc2cc(-c3nc4sc(S(N)(=O)=O)nn4c3N=O)c(=O)oc2c1 | 50 (≈ 111 µM) | 125 (≈ 279 µM) | 125 (≈ 279 µM) | 31.2 (≈ 69.7 µM) | 31.2 (≈ 69.7 µM) |
| CCN(CC)c1ccc2cc(-c3nc4sc(S(N)(=O)=O)nn4c3CN3CCCC3)c(=O)oc2c1 | 25 (≈ 49.7 µM) | 62.5 (≈ 124 µM) | 62.5 (≈ 124 µM) | 8 (≈ 15.9 µM) | 8 (≈ 15.9 µM) |
| CCN(CC)c1ccc2cc(-c3nc4sc(S(=O)(=O)/N=C/N(C)C)nn4c3C=O)c(=O)oc2c1 | 1.6 (≈ 3.18 µM) | 16 (≈ 31.8 µM) | 16 (≈ 31.8 µM) | 4 (≈ 7.96 µM) | 4 (≈ 7.96 µM) |
| CCN(CC)c1ccc2cc(-c3nc4sc(S(=O)(=O)/N=C/N(C)C)nn4c3/C=N/O)c(=O)oc2c1 | 25 (≈ 48.3 µM) | 62.5 (≈ 121 µM) | 62.5 (≈ 121 µM) | 16 (≈ 30.9 µM) | 16 (≈ 30.9 µM) |
| CCN(CC)c1ccc2cc(-c3nc4sc(S(N)(=O)=O)nn4c3CN3CCOCC3)c(=O)oc2c1 | 25 (≈ 48.2 µM) | 62.5 (≈ 121 µM) | 62.5 (≈ 121 µM) | 31.2 (≈ 60.3 µM) | 31.2 (≈ 60.3 µM) |
| CCN(CC)c1ccc2cc(-c3nc4sc(S(=O)(=O)/N=C/N(C)C)nn4c3/C=N/NC(=N)N)c(=O)oc2c1 | 0.8 (≈ 1.43 µM) | 16 (≈ 28.6 µM) | 16 (≈ 28.6 µM) | 1 (≈ 1.79 µM) | 1 (≈ 1.79 µM) |
| CN[C@@H]1[C@H](O[C@H]2[C@H](O[C@H]3[C@H](O)[C@@H](O)[C@H](N=C(N)N)[C@@H](O)[C@@H]3N=C(N)N)O[C@@H](C)[C@]2(O)C=O)O[C@@H](CO)[C@H](O)[C@H]1O [STREPTOMYCIN] | 6.25 (≈ 10.7 µM) |  |  |  |  |
| CCN(CC)c1ccc2cc(-c3nc4sc(S(=O)(=O)/N=C/N(C)C)nn4c3C#N)c(=O)oc2c1 | 25 (≈ 50 µM) | 62.5 (≈ 125 µM) | 62.5 (≈ 125 µM) | 16 (≈ 32 µM) | 16 (≈ 32 µM) |
| CCN(CC)c1ccc2cc(-c3nc4sc(S(N)(=O)=O)nn4c3Br)c(=O)oc2c1 | 6.25 (≈ 12.5 µM) | 62.5 (≈ 125 µM) | 62.5 (≈ 125 µM) | 16 (≈ 32.1 µM) | 16 (≈ 32.1 µM) |
| CCN(CC)c1ccc2cc(-c3cn4nc(S(N)(=O)=O)sc4n3)c(=O)oc2c1 | 3.12 (≈ 7.45 µM) | 62.5 (≈ 149 µM) | 62.5 (≈ 149 µM) | 31.2 (≈ 74.5 µM) | 31.2 (≈ 74.5 µM) |
| CCn1cc(C(=O)O)c(=O)c2cc(F)c(N3CCNCC3)cc21 [NORFLOXACIN] |  | 2 (≈ 6.26 µM) | 2 (≈ 6.26 µM) | 16 (≈ 50.1 µM) | 1 (≈ 3.13 µM) |
| CCN(CC)c1ccc2cc(-c3nc4sc(S(N)(=O)=O)nn4c3CN3CCCCC3)c(=O)oc2c1 | 25 (≈ 48.4 µM) | 62.5 (≈ 121 µM) | 62.5 (≈ 121 µM) | 31.2 (≈ 60.5 µM) | 31.2 (≈ 60.5 µM) |
| CCN(CC)c1ccc2cc(-c3nc4sc(S(=O)(=O)/N=C/N(C)C)nn4c3CO)c(=O)oc2c1 | 3.12 (≈ 6.19 µM) | 31.2 (≈ 61.9 µM) | 31.2 (≈ 61.9 µM) | 8 (≈ 15.9 µM) | 8 (≈ 15.9 µM) |
